EP0741188A2, “Single chain insulin with high bioactivity” (ELI LILLY AND COMPANY, priority 1995, dated 1996)

Columns and labels:
IGF-1 receptor = test: IGF-1 assay: displacement of [125I] ligand from human placental membranes; type: binding; conditions: relative to IGF-1 = 100, human placental membrane protein, 24 hours at 4°C, from EC50 values of displacement curves
Method: (§1) Measurements of insulin and IGF-1 activities were accomplished in substantial accordance with the teaching of Gruppuso, et al. (1988) J. of Clin. Endocrin. and Metab. 67:194-197. Briefly, 30-50 µg of human placental membrane protein was incubated with approximately 10 femtomoles of [^125I] ligand in a final volume of 500 µl of 100 mM HEPES, pH 7.8, 120mM NaCl, 5mM KCl, 1.2mM MgSO4, 8mM glucose and 0.25% BSA for 24 hours at 4°C. Membranes were collected on glass fiber filters pre-treated with 0.1% polyethyleneimine by using a cell harvester (Skatron, Lier, Norway). Binding data were analyzed by fitting displacement curves to a four parameter model employing Prefit/Allfit® software for the determination of EC50 values.

insulin receptor = test: Insulin assay: displacement of [125I] ligand from human placental membranes; type: binding; conditions: relative to human insulin = 100, human placental membrane protein, 24 hours at 4°C, from EC50 values of displacement curves
Method: as §1

“bCa: single-chain human insulin B-chain and A-chain joined by Bridging Peptide GLY-TYR-GLY-SER-SER-SER-ARG-ARG-ALA-PRO-GLN-THR; made by solid-phase synthesis” was tested, and the “%IGF-1 Activity” value (IGF-1 receptor) was 23% and the “%Insulin Activity” value (insulin receptor) was 34%.
